ChEMBL document CHEMBL1154288, “The discovery and unique pharmacological profile of RO4938581 and RO4882224 as potent and selective GABAA alpha5 inverse agonists for the treatment of cognitive dysfunction” (Bioorg Med Chem Lett, 2009)
Values after ≈ are worked out from the molar mass of the structure shown.

tested on: not listed separately; assay: Solubility by lypophlisation solubility assay; format: physicochemical; conditions: not given

Row | Structure (SMILES) | solubility [µg/mL]
1 | FC(F)c1ncn2c1Cn1ncnc1-c1cc(Br)ccc1-2 | 19 (≈ 54 µM)
2 | Clc1ccc2c(c1)-c1ncnn1Cc1c(Cl)ncn1-2 | 27 (≈ 92.4 µM)
3 | Clc1ncn2c1Cn1ncnc1-c1cc(Br)ccc1-2 | 9 (≈ 26.7 µM)
4 | Cc1ncn2c1Cn1ncnc1-c1cc(Cl)ccc1-2 | 13 (≈ 47.8 µM)

target: Gamma-aminobutyric acid receptor subunit alpha-3 (Rattus norvegicus) (UniProt P20236); assay: Inverse agonist activity at rat GABA alpha-3-beta-3-gamma-2 receptor expressed in HEK293 cells by electrophysiology assay relative to GABA; format: functional, cell-based; conditions: not given
Sequence (P20236 whole entry): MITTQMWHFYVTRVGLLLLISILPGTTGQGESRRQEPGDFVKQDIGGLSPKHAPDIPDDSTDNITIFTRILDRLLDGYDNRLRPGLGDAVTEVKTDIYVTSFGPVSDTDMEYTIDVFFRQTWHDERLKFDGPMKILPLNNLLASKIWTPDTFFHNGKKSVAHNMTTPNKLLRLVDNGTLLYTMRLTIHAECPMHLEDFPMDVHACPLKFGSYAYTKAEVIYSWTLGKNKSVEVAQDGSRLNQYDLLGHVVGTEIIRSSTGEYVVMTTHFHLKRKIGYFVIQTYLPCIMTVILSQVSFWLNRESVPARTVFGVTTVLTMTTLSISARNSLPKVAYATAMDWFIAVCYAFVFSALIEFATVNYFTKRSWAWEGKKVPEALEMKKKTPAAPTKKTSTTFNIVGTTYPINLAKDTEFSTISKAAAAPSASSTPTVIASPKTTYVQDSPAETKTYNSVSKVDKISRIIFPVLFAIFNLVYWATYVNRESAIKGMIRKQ

Row | Structure (SMILES) | Efficacy [%]
5 | FC(F)c1ncn2c1Cn1ncnc1-c1cc(Br)ccc1-2 | 2
6 | Clc1ccc2c(c1)-c1ncnn1Cc1c(Cl)ncn1-2 | -11
7 | Clc1ncn2c1Cn1ncnc1-c1cc(Br)ccc1-2 | -14
8 | Cc1ncn2c1Cn1ncnc1-c1cc(Cl)ccc1-2 | 4

target: GABA A receptor alpha-2/beta-2/gamma-2 (Rattus norvegicus) (UniProt P18508+P23576+P63138); assay: Inverse agonist activity at rat GABA alpha-2-beta-3-gamma-2 receptor expressed in HEK293 cells by electrophysiology assay relative to GABA; format: functional, cell-based; conditions: not given

Row | Structure (SMILES) | Efficacy [%]
9 | FC(F)c1ncn2c1Cn1ncnc1-c1cc(Br)ccc1-2 | -4
10 | Clc1ccc2c(c1)-c1ncnn1Cc1c(Cl)ncn1-2 | -9
11 | Clc1ncn2c1Cn1ncnc1-c1cc(Br)ccc1-2 | -25
12 | Cc1ncn2c1Cn1ncnc1-c1cc(Cl)ccc1-2 | -2

tested on: not listed separately; assay: Lipophilicity, log D at pH 7.4; format: physicochemical; conditions: buffer

Row | Structure (SMILES) | logD
13 | FC(F)c1ncn2c1Cn1ncnc1-c1cc(Br)ccc1-2 | 1.9
14 | Clc1ccc2c(c1)-c1ncnn1Cc1c(Cl)ncn1-2 | 1.8
15 | Clc1ncn2c1Cn1ncnc1-c1cc(Br)ccc1-2 | 2.2
16 | Cc1ncn2c1Cn1ncnc1-c1cc(Cl)ccc1-2 | 2

tested on: not listed separately; assay: Half life in rat; format: ADME, organism-based; conditions: in vivo

Row | Structure (SMILES) | half-life [h]
17 | FC(F)c1ncn2c1Cn1ncnc1-c1cc(Br)ccc1-2 | 4.9
18 | Clc1ccc2c(c1)-c1ncnn1Cc1c(Cl)ncn1-2 | 0.6
19 | Clc1ncn2c1Cn1ncnc1-c1cc(Br)ccc1-2 | 1.6
20 | Cc1ncn2c1Cn1ncnc1-c1cc(Cl)ccc1-2 | 3.4

target: GABA-A receptor; alpha-1/beta-2/gamma-2 (Rattus norvegicus) (UniProt P18508+P62813+P63138); assay: Inverse agonist activity at rat GABA alpha-1-beta-3-gamma-2 receptor expressed in HEK293 cells by electrophysiology assay relative to GABA; format: functional, cell-based; conditions: not given

Row | Structure (SMILES) | Efficacy [%]
21 | FC(F)c1ncn2c1Cn1ncnc1-c1cc(Br)ccc1-2 | -3
22 | Clc1ccc2c(c1)-c1ncnn1Cc1c(Cl)ncn1-2 | -3
23 | Clc1ncn2c1Cn1ncnc1-c1cc(Br)ccc1-2 | -13
24 | Cc1ncn2c1Cn1ncnc1-c1cc(Cl)ccc1-2 | -11

tested on: HEK293; assay: Selectivity ratio of Ki for cloned human GABA alpha-3-beta-3-gamma-2 receptor expressed in HEK293 cells to Ki for cloned human GABA alpha-5-beta-3-gamma-2 receptor expressed in HEK293 cells; format: cell-based; conditions: not given

Row | Structure (SMILES) | Ratio Ki
25 | Clc1ccc2c(c1)-c1ncnn1Cc1c(Cl)ncn1-2 | 7
26 | Clc1ncn2c1Cn1ncnc1-c1cc(Br)ccc1-2 | 7
27 | Cc1ncn2c1Cn1ncnc1-c1cc(Cl)ccc1-2 | 88

target: T1, GABA-A receptor; alpha-3/beta-3/gamma-2 (Homo sapiens, UniProt P18507+P28472+P34903); assay: Displacement of [3H]Flumazenil from cloned human GABA alpha-3-beta-3-gamma-2 receptor expressed in HEK293 cells; format: cell-based; conditions: not given
T1 sequence (P18507 whole entry): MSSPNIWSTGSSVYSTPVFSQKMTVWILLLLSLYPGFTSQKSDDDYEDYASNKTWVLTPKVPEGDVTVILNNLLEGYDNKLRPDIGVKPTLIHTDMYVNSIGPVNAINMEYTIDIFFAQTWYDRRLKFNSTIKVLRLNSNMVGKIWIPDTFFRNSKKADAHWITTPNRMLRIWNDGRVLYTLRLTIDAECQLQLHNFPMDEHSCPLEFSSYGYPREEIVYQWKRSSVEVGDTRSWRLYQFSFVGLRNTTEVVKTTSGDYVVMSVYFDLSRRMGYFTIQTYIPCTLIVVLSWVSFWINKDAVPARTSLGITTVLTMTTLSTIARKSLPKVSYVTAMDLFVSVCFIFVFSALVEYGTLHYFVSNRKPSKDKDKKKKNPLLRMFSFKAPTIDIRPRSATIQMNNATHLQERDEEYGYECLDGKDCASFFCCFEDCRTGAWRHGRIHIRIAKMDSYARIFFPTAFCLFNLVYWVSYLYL
T1 sequence (P28472 whole entry): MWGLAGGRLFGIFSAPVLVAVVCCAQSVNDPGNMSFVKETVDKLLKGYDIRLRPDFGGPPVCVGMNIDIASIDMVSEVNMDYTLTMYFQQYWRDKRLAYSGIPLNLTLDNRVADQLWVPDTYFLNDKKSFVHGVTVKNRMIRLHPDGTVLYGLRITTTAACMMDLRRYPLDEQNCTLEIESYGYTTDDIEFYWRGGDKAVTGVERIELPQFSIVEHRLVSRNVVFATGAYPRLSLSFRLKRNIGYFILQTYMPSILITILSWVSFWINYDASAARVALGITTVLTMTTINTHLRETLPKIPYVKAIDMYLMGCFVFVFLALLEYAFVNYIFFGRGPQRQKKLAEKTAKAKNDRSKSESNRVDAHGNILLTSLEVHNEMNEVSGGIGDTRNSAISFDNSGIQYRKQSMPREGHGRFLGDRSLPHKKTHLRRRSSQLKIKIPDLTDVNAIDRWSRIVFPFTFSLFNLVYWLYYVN
T1 sequence (P34903 whole entry): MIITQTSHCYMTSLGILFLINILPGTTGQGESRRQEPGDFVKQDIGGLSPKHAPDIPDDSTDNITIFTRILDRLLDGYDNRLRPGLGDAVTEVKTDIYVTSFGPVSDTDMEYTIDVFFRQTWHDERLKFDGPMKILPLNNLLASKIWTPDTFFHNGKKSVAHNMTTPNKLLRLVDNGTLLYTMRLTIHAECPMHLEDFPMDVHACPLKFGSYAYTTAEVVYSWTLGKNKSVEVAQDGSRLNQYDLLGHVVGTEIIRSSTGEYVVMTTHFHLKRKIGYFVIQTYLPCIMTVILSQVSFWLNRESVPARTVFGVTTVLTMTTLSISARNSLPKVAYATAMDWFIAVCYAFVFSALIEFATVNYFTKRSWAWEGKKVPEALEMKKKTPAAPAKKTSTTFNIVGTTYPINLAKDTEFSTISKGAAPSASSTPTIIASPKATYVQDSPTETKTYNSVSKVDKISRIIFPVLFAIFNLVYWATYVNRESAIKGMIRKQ

Row | Structure (SMILES) | Ki [nM]
28 | FC(F)c1ncn2c1Cn1ncnc1-c1cc(Br)ccc1-2 | 80
29 | Clc1ccc2c(c1)-c1ncnn1Cc1c(Cl)ncn1-2 | 14
30 | Clc1ncn2c1Cn1ncnc1-c1cc(Br)ccc1-2 | 8.8
31 | Cc1ncn2c1Cn1ncnc1-c1cc(Cl)ccc1-2 | 265

tested on: HEK293; assay: Selectivity ratio of Ki for cloned human GABA alpha-2-beta-3-gamma-2 receptor expressed in HEK293 cells to Ki for cloned human GABA alpha-5-beta-3-gamma-2 receptor expressed in HEK293 cells; format: cell-based; conditions: not given

Row | Structure (SMILES) | Ratio Ki
32 | Clc1ccc2c(c1)-c1ncnn1Cc1c(Cl)ncn1-2 | 12
33 | Clc1ncn2c1Cn1ncnc1-c1cc(Br)ccc1-2 | 18
34 | Cc1ncn2c1Cn1ncnc1-c1cc(Cl)ccc1-2 | 72

tested on: not listed separately; assay: Volume of distribution at steady state in rat; format: ADME, organism-based; conditions: in vivo, read-out: Vdss

Row | Structure (SMILES) | Vd [L/kg]
35 | FC(F)c1ncn2c1Cn1ncnc1-c1cc(Br)ccc1-2 | 1.2
36 | Clc1ccc2c(c1)-c1ncnn1Cc1c(Cl)ncn1-2 | 0.5
37 | Clc1ncn2c1Cn1ncnc1-c1cc(Br)ccc1-2 | 1.3
38 | Cc1ncn2c1Cn1ncnc1-c1cc(Cl)ccc1-2 | 1.9

tested on: not listed separately; assay: Permeability by PAMPA; format: ADME; conditions: read-out: permeability

Row | Structure (SMILES) | Papp [×10⁻⁶ cm/s]
39 | FC(F)c1ncn2c1Cn1ncnc1-c1cc(Br)ccc1-2 | 7
40 | Clc1ccc2c(c1)-c1ncnn1Cc1c(Cl)ncn1-2 | 6.5
41 | Clc1ncn2c1Cn1ncnc1-c1cc(Br)ccc1-2 | 7
42 | Cc1ncn2c1Cn1ncnc1-c1cc(Cl)ccc1-2 | 8.9

tested on: not listed separately; assay: Ratio of drug level in brain to plasma in rat; format: ADME; conditions: not given

Row | Structure (SMILES) | Kp
43 | FC(F)c1ncn2c1Cn1ncnc1-c1cc(Br)ccc1-2 | 0.4
44 | Clc1ccc2c(c1)-c1ncnn1Cc1c(Cl)ncn1-2 | 0.2
45 | Cc1ncn2c1Cn1ncnc1-c1cc(Cl)ccc1-2 | 0.6

target: T2, GABA-A receptor; alpha-2/beta-3/gamma-2 (Homo sapiens, UniProt P18507+P28472+P47869); assay: Displacement of [3H]Flumazenil from cloned human GABA alpha-2-beta-3-gamma-2 receptor expressed in HEK293 cells; format: cell-based; conditions: not given
T2 sequence (P18507 whole entry): T1 sequence (P18507 whole entry)
T2 sequence (P28472 whole entry): T1 sequence (P28472 whole entry)
T2 sequence (P47869 whole entry): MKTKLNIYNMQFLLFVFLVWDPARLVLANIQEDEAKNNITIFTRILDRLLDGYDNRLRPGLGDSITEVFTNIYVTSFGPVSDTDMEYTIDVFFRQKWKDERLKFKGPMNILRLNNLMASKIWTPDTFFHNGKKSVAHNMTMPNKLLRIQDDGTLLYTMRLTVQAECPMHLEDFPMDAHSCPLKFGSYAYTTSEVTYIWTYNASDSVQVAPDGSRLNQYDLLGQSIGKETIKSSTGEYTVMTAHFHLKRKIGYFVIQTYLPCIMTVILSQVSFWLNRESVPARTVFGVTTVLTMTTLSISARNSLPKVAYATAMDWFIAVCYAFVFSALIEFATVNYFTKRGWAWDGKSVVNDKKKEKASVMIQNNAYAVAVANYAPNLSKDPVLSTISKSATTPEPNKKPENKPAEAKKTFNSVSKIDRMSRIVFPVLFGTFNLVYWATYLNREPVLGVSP

Row | Structure (SMILES) | Ki [nM]
46 | FC(F)c1ncn2c1Cn1ncnc1-c1cc(Br)ccc1-2 | 185
47 | Clc1ccc2c(c1)-c1ncnn1Cc1c(Cl)ncn1-2 | 24
48 | Clc1ncn2c1Cn1ncnc1-c1cc(Br)ccc1-2 | 24
49 | Cc1ncn2c1Cn1ncnc1-c1cc(Cl)ccc1-2 | 219

tested on: not listed separately; assay: Clearance in rat; format: ADME, organism-based; conditions: in vivo

Row | Structure (SMILES) | clearance [mL/min/kg]
50 | FC(F)c1ncn2c1Cn1ncnc1-c1cc(Br)ccc1-2 | 2.9
51 | Clc1ccc2c(c1)-c1ncnn1Cc1c(Cl)ncn1-2 | 12.4
52 | Clc1ncn2c1Cn1ncnc1-c1cc(Br)ccc1-2 | 9.7
53 | Cc1ncn2c1Cn1ncnc1-c1cc(Cl)ccc1-2 | 7.2
